# Measured values taken from patent publication US20150296790A1, “SILICON-CONTAINING COMPOUND AQUEOUS SOLUTION AND ANTIBACTERIAL/ANTIVIRAL AGENT INCLUDING SAID SOLUTION” (JEX CO., LTD., priority 2012, published 2015).
# Test: Stability over time (three-month storage tests, visual)
# Format: physicochemical
# Details: purified water
smiles,measurement,setting,value
"CCCCCCCCCCCCCCCCCC[N+](C)(C)CCC[Si](OCC)(OCC)OCC.[Cl-] [Compound E, Octadecyl dimethyl(3-triethoxysilylpropyl)ammonium chloride]","Change Over 3 Months (Accelerated Test at 40° C., Cold Test at 5° C., Ambient Test at 25° C.)","DEXYPEARL 1 w/w %, Compound E 0.1 w/w %",Not clear but stable
same,"Change Over 3 Months (Accelerated Test at 40° C., Cold Test at 5° C., Ambient Test at 25° C.)","DEXYPEARL 2 w/w %, Compound E 0.1 w/w %",Not clear but stable
same,"Change Over 3 Months (Accelerated Test at 40° C., Cold Test at 5° C., Ambient Test at 25° C.)","DEXYPEARL 3 w/w %, Compound E 0.1 w/w %",Not clear but stable
same,"Change Over 3 Months (Accelerated Test at 40° C., Cold Test at 5° C., Ambient Test at 25° C.)","DEXYPEARL 4 w/w %, Compound E 0.1 w/w %",Not clear but stable
same,"Change Over 3 Months (Accelerated Test at 40° C., Cold Test at 5° C., Ambient Test at 25° C.)","DEXYPEARL 5 w/w %, Compound E 0.1 w/w %",Not clear but stable
same,"Change Over 3 Months (Accelerated Test at 40° C., Cold Test at 5° C., Ambient Test at 25° C.)","DEXYPEARL 6 w/w %, Compound E 0.1 w/w %",Not clear but stable
same,"Change Over 3 Months (Accelerated Test at 40° C., Cold Test at 5° C., Ambient Test at 25° C.)","DEXYPEARL 7 w/w %, Compound E 0.1 w/w %",Not clear but stable
same,"Change Over 3 Months (Accelerated Test at 40° C., Cold Test at 5° C., Ambient Test at 25° C.)","DEXYPEARL 8 w/w %, Compound E 0.1 w/w %",Not clear but stable
same,"Change Over 3 Months (Accelerated Test at 40° C., Cold Test at 5° C., Ambient Test at 25° C.)","DEXYPEARL 9 w/w %, Compound E 0.1 w/w %",Not clear but stable
same,"Change Over 3 Months (Accelerated Test at 40° C., Cold Test at 5° C., Ambient Test at 25° C.)","DEXYPEARL 10 w/w %, Compound E 0.1 w/w %",Not clear but stable
same,"Change Over 3 Months (Accelerated Test at 40° C., Cold Test at 5° C., Ambient Test at 25° C.)","DEXYPEARL 20 w/w %, Compound E 0.1 w/w %",Precipitated
same,"Change Over 3 Months (Accelerated Test at 40° C., Cold Test at 5° C., Ambient Test at 25° C.)","DEXYPEARL 30 w/w %, Compound E 0.1 w/w %",Precipitated
same,"Change Over 3 Months (Accelerated Test at 40° C., Cold Test at 5° C., Ambient Test at 25° C.)","DEXYPEARL 40 w/w %, Compound E 0.1 w/w %",Precipitated
same,"Change Over 3 Months (Accelerated Test at 40° C., Cold Test at 5° C., Ambient Test at 25° C.)","ISOELEAT 1 w/w %, Compound E 0.1 w/w %",Not clear but stable
same,"Change Over 3 Months (Accelerated Test at 40° C., Cold Test at 5° C., Ambient Test at 25° C.)","ISOELEAT 2 w/w %, Compound E 0.1 w/w %",Not clear but stable
same,"Change Over 3 Months (Accelerated Test at 40° C., Cold Test at 5° C., Ambient Test at 25° C.)","ISOELEAT 3 w/w %, Compound E 0.1 w/w %",Not clear but stable
same,"Change Over 3 Months (Accelerated Test at 40° C., Cold Test at 5° C., Ambient Test at 25° C.)","ISOELEAT 4 w/w %, Compound E 0.1 w/w %",Not clear but stable
same,"Change Over 3 Months (Accelerated Test at 40° C., Cold Test at 5° C., Ambient Test at 25° C.)","ISOELEAT 5 w/w %, Compound E 0.1 w/w %",Not clear but stable
same,"Change Over 3 Months (Accelerated Test at 40° C., Cold Test at 5° C., Ambient Test at 25° C.)","ISOELEAT 6 w/w %, Compound E 0.1 w/w %",Not clear but stable
same,"Change Over 3 Months (Accelerated Test at 40° C., Cold Test at 5° C., Ambient Test at 25° C.)","ISOELEAT 7 w/w %, Compound E 0.1 w/w %",Not clear but stable
same,"Change Over 3 Months (Accelerated Test at 40° C., Cold Test at 5° C., Ambient Test at 25° C.)","ISOELEAT 8 w/w %, Compound E 0.1 w/w %",Not clear but stable
same,"Change Over 3 Months (Accelerated Test at 40° C., Cold Test at 5° C., Ambient Test at 25° C.)","ISOELEAT 9 w/w %, Compound E 0.1 w/w %",Not clear but stable
same,"Change Over 3 Months (Accelerated Test at 40° C., Cold Test at 5° C., Ambient Test at 25° C.)","ISOELEAT 10 w/w %, Compound E 0.1 w/w %",Precipitated
same,"Change Over 3 Months (Accelerated Test at 40° C., Cold Test at 5° C., Ambient Test at 25° C.)","ISOELEAT 20 w/w %, Compound E 0.1 w/w %",Precipitated
same,"Change Over 3 Months (Accelerated Test at 40° C., Cold Test at 5° C., Ambient Test at 25° C.)","ISOELEAT 30 w/w %, Compound E 0.1 w/w %",Precipitated
same,"Change Over 3 Months (Accelerated Test at 40° C., Cold Test at 5° C., Ambient Test at 25° C.)","ISOELEAT 40 w/w %, Compound E 0.1 w/w %",Precipitated
same,"Change Over 3 Months (Accelerated Test at 40° C., Cold Test at 5° C., Ambient Test at 25° C.)","ISOELEAT 50 w/w %, Compound E 0.1 w/w %",Precipitated
same,"Change Over 3 Months (Accelerated Test at 40° C., Cold Test at 5° C., Ambient Test at 25° C.)","α-CD 1 w/w %, Compound E 0.1 w/w %",Stable
same,"Change Over 3 Months (Accelerated Test at 40° C., Cold Test at 5° C., Ambient Test at 25° C.)","α-CD 1 w/w %, Compound E 0.2 w/w %",Stable
same,"Change Over 3 Months (Accelerated Test at 40° C., Cold Test at 5° C., Ambient Test at 25° C.)","α-CD 1 w/w %, Compound E 0.3 w/w %",Stable
same,"Change Over 3 Months (Accelerated Test at 40° C., Cold Test at 5° C., Ambient Test at 25° C.)","α-CD 1 w/w %, Compound E 0.4 w/w %",Stable
same,"Change Over 3 Months (Accelerated Test at 40° C., Cold Test at 5° C., Ambient Test at 25° C.)","α-CD 1 w/w %, Compound E 0.5 w/w %",Stable
same,"Change Over 3 Months (Accelerated Test at 40° C., Cold Test at 5° C., Ambient Test at 25° C.)","α-CD 1 w/w %, Compound E 0.6 w/w %",Stable
same,"Change Over 3 Months (Accelerated Test at 40° C., Cold Test at 5° C., Ambient Test at 25° C.)","α-CD 1 w/w %, Compound E 0.7 w/w %",Stable
